From US20260258025A1, “INHIBITORS OF TDP-43 AND TAU AGGREGATION” (Aquinnah Pharmaceuticals, inc., priority 2023, published 2026)

Each molecule was assayed on TDP-43 aggregation (assay: TDP-43 aggregation assay in SY5Y TDP-43WT cells (high content imaging)). Details: Homo sapiens, tetracycline induction 24 hrs, 1 hour compound pre-treatment, sodium arsenite 23 hrs, 8-point dose curve, percentage of cells with TDP-43 aggregates, read-out: IC50, Inhibition of TDP-43 Aggregation.
Format: cell-based
Procedure: Exemplary compounds disclosed herein were evaluated for efficacy in inhibiting TDP-43 inclusions cellular imaging-based assays.
The cellular model was in human neuroblastoma SH SYSY cells (ATCC, cat #: CRL-2266). The parent cell line was first engineered to stably express a tetracycline repressor protein (designated as TREx-SY5Y cells, customer cell line development by ThermoFisher). Wild-type human TDP-43 with a C-terminus eGFP tag was synthesized and cloned into pcDNA5/TO expression vector (ThermoFisher). The plasmid was transfected into TREx-SY5Y cells using Lipofectamine 2000 and hygromycin resistant colonies were selected. Expression of TDP-43WT::eGFP was examined under fluorescent microscopy and Western blot upon tetracycline induction. The clone that was used for TDP-43 aggregation assay is referred to as SY5Y TDP-43WT cells hereafter.
Compound inhibition of TDP-43 aggregation was tested in an 8-point dose curve in 96-well format. Briefly, TDP-43WT::eGFP expression was induced with […] for 24 hrs (SY5Y TDP-43WT cells). The cells were then pre-treated for 1 hour with exemplary compounds before adding sodium arsenite to a final concentration of […] and incubated for another 23 hrs. At the end of the treatment the cell monolayers were washed in PBS and fixed in 4% paraformaldehyde (PFA), diluted from 16% stock (Electron Microscopy Sciences cat: #15710-S). The inhibitory effect on TDP-43 aggregation was measured using CellInsight CX7 high content imager (ThermoFisher). The percentage of cells with TDP-43 aggregates was calculated based on the total number of cells identified by DAPI staining. An 8-point dose response curve was generated, and the IC50 for each compound tested was determined (Table 3).
In Table 3 below, A indicates an IC50 (nM)<500 nM, B indicates an IC50 (nM) 500 nM to <1000 nM, C indicates an IC50 (nM) 1000 nM to <2000 nM, D indicates an IC50 (nM) 2000 nM to <6000 nM, and E indicates an IC50 (nM) 6000 nM to ≤10000 nM.

SMILES	IC50 [nM]
Cc1cc(-c2ccc3c(c2)CN(C)CC3)sc1C(=O)N1CC[C@H](N)C1 [Compound 189]	< 500
Cc1cc(-c2ccc(-c3cn[nH]c3)cc2)sc1C(=O)N1CC[C@H](N)C1 [Compound 242]	< 500
Cc1cc(-c2ccc(-c3ccccc3)cc2)sc1C(=O)N1CC[C@H](N)C1 [Compound 234]	2000 to 6000
COc1cc(C2CCN(C3CCOCC3)CC2)ccc1-c1cc(C)c(C(=O)N2CC[C@H](N)C2)s1 [Compound 259, (S)-(3-aminopyrrolidin-1-yl)(5-(2-methoxy-4-(1-(tetrahydro-2H-pyran-4-yl)piperidin-4-yl)phenyl)-3-methylthiophen-2-yl)methanone]	2000 to 6000
N[C@H]1CCN(C(=O)c2sc(-c3ccc(C4CCN(C5CCOCC5)CC4)c(Cl)c3)cc2Cl)C1 [Compound 273, (S)-(3-aminopyrrolidin-1-yl)(3-chloro-5-(3-chloro-4-(1-(tetrahydro-2H-pyran-4-yl)piperidin-4-yl)phenyl)thiophen-2-yl)methanone]	< 500
CCc1ccc(-c2sc(C(=O)N3CC[C@H](N)C3)c(C)c2C)cc1 [Compound 233]	6000 to 10000
Cc1cc(-c2ccc(C3(N(C)C)CCCCC3)cc2)sc1C(=O)N1CC[C@H](N)C1 [Compound 192, (S)-(3-aminopyrrolidin-1-yl){5-[4-(1-dimethylaminocyclohexyl)phenyl]-3-methylthiophen-2-yl}methanone]	2000 to 6000
Cc1cc(-c2ccc(COC3CCOCC3)cc2)sc1C(=O)N1CC[C@H](N)C1 [Compound 202, (S)-(3-aminopyrrolidin-1-yl)(3-methyl-5-(4-((tetrahydro-2H-pyran-4-yloxy)methyl)phenyl)thiophen-2-yl)methanone]	1000 to 2000
Cc1cc(-c2ccc(CN)cc2)sc1C(=O)N1CC[C@H](N)C1 [Compound 219]	< 500
Cc1cc(-c2ccc(C3CCCC3)cc2)sc1C(=O)N1CC[C@H](N)C1 [Compound 241]	6000 to 10000
CCc1ccc(-c2cc(C)c(C(=O)N3CC[C@H](N)C3)s2)cc1 [Compound 228]	500 to 1000
C=CCc1cc(-c2ccc(C3CCN(C4CCOCC4)CC3)cc2)sc1C(=O)N1CC[C@H](N)C1 [Compound 286]	< 500
Cc1cc(-c2ccc(C3CCCCC3)cc2)sc1C(=O)N1CC[C@H](N)C1 [Compound 238]	6000 to 10000
CCCc1ccc(-c2cc(C)c(C(=O)N3CC[C@H](N)C3)s2)cc1 [Compound 227]	2000 to 6000
CNCc1ccc(-c2cc(C)c(C(=O)N3CC[C@H](N)C3)s2)cc1 [Compound 218]	< 500
Cc1cc(-c2ccc3c(c2)NCCC3)sc1C(=O)N1CC[C@H](N)C1 [Compound 197, (S)-(3-aminopyrrolidin-1-yl)(3-methyl-5-(1,2,3,4-tetrahydroquinolin-7-yl)thiophen-2-yl)methanone]	1000 to 2000
Cc1cc(-c2ccc(C3CCN(C4CNC4)CC3)cc2)sc1C(=O)N1CC[C@H](N)C1 [Compound 174, (S)-(3-aminopyrrolidin-1-yl)(5-(4-(1-(azetidin-3-yl)piperidin-4-yl)phenyl)-3-methylthiophen-2-yl)methanone]	1000 to 2000
N[C@H]1CCN(C(=O)c2sc(-c3ccc(C4CCN(C5CCOCC5)CC4)c(Cl)c3)cc2OC(F)(F)F)C1 [Compound 252, (S)-(3-aminopyrrolidin-1-yl)(5-(3-chloro-4-(1-(tetrahydro-2H-pyran-4-yl)piperidin-4-yl)phenyl)-3-(trifluoromethoxy)thiophen-2-yl)methanone]	6000 to 10000

Next, values leading:

IC50 [nM]	SMILES
< 500	CC(C)N1CCC(c2ccc(-c3cc(Cl)c(C(=O)N4CC[C@H](N)C4)s3)cc2F)CC1 [Compound 284, (S)-(3-aminopyrrolidin-1-yl)(3-chloro-5-(3-fluoro-4-(1-isopropylpiperidin-4-yl)phenyl)thiophen-2-yl)methanone]
< 500	N[C@H]1CCN(C(=O)c2sc(-c3ccc(C4CCN(C5CCCCC5)CC4)c(F)c3)cc2Cl)C1 [Compound 269, (S)-(3-aminopyrrolidin-1-yl)(3-chloro-5-(4-(1-cyclohexylpiperidin-4-yl)-3-fluorophenyl)thiophen-2-yl)methanone]
< 500	Cc1cc(-c2ccc3c(c2)CCC3N(C)C)sc1C(=O)N1CC[C@H](N)C1 (stereo partly drawn) [Compound 188, ((S)-3-aminopyrrolidin-1-yl)(5-(1-(dimethylamino)-2,3-dihydro-1H-inden-5-yl)-3-methylthiophen-2-yl)methanone]
< 500	COCCN1CCC(c2ccc(-c3cc(Cl)c(C(=O)N4CC[C@H](N)C4)s3)cc2)CC1 [Compound 258, (S)-(3-aminopyrrolidin-1-yl)(3-chloro-5-(4-(1-(2-methoxyethyl)piperidin-4-yl)phenyl)thiophen-2-yl)methanone]
< 500	N[C@H]1CCN(C(=O)c2sc(-c3ccc(C4CCN(C5COC5)CC4)c(F)c3)cc2Cl)C1 [Compound 265, (S)-(3-aminopyrrolidin-1-yl)(3-chloro-5-(3-fluoro-4-(1-(oxetan-3-yl)piperidin-4-yl)phenyl)thiophen-2-yl)methanone]
< 500	Cc1cc(-c2ccc3c(c2)CCN(C)C3)sc1C(=O)N1CC[C@H](N)C1 [Compound 191, (S)-(3-aminopyrrolidin-1-yl)(3-methyl-5-(2-methyl-1,2,3,4-tetrahydroisoquinolin-6-yl)thiophen-2-yl)methanone]
500 to 1000	Cc1cc(-c2ccc(C3CCC3)cc2)sc1C(=O)N1CC[C@H](N)C1 [Compound 232]
500 to 1000	COCCN1CCC(c2ccc(-c3cc(C)c(C(=O)N4CC[C@H](N)C4)s3)cc2Cl)CC1 [Compound 248, (S)-(3-aminopyrrolidin-1-yl)(5-(3-chloro-4-(1-(2-methoxyethyl)piperidin-4-yl)phenyl)-3-methylthiophen-2-yl)methanone]
< 500	COC(C)CN1CCC(c2ccc(-c3cc(C)c(C(=O)N4CC[C@H](N)C4)s3)cc2F)CC1 (stereo partly drawn) [Compound 251, ((S)-3-aminopyrrolidin-1-yl)(5-(3-fluoro-4-(1-(2-methoxypropyl)piperidin-4-yl)phenyl)-3-methylthiophen-2-yl)methanone]
500 to 1000	COc1cc(-c2ccc(C3CCN(C4CCOCC4)CC3)c(F)c2)sc1C(=O)N1CC[C@H](N)C1 [Compound 292, (S)-(3-aminopyrrolidin-1-yl)(5-(3-fluoro-4-(1-(tetrahydro-2H-pyran-4-yl)piperidin-4-yl)phenyl)-3-methoxythiophen-2-yl)methanone]
< 500	Cc1cc(-c2ccc(C3CCN(C4CCCCC4)CC3)c(F)c2)sc1C(=O)N1CC[C@H](N)C1 [Compound 277, (S)-(3-aminopyrrolidin-1-yl)(5-(4-(1-cyclohexylpiperidin-4-yl)-3-fluorophenyl)-3-methylthiophen-2-yl)methanone]
< 500	Cc1cc(-c2ccc(C3CCN(C4CN(C)C4)CC3)cc2)sc1C(=O)N1CC[C@H](N)C1 [Compound 173, (S)-(3-aminopyrrolidin-1-yl)(3-methyl-5-(4-(1-(1-methylazetidin-3-yl)piperidin-4-yl)phenyl)thiophen-2-yl)methanone]
6000 to 10000	Cc1cc(-c2ccc3c(c2)N(C)CCC3)sc1C(=O)N1CC[C@H](N)C1 [Compound 196, (S)-(3-aminopyrrolidin-1-yl)(3-methyl-5-(1-methyl-1,2,3,4-tetrahydroquinolin-7-yl)thiophen-2-yl)methanone]
